Measurements: article PMC3641841 (2010)

System: Oxytricha Nova quadruplex (GGGGTTTTGGGG)2 (DNA, G4) GGGGTTTTGGGG
Assay: ITC
Conditions: 10 mM sodium cacodylate, 0.5 mM EDTA, pH 7.0, 20 °C

Row | Ka (K+ 90 mM) | Ka (Na+ 100 mM) | Compound
1 | 0.45±0.01 × 10^5 M^−1 |  | NC[C@@H]1O[C@H](O[C@H]2[C@@H](O)[C@H](O[C@@H]3[C@@H](O)[C@H](N)C[C@H](N)[C@H]3O[C@H]3O[C@H](CO)[C@@H](O)[C@H](O)[C@H]3N)O[C@@H]2CO)[C@H](N)[C@@H](O)[C@@H]1O
2 | 1.15±0.08 × 10^5 M^−1 | 1.03±0.50 × 10^5 M^−1 | NC[C@@H]1O[C@H](O[C@H]2[C@@H](O)[C@H](O[C@@H]3[C@@H](O)[C@H](N)C[C@H](N)[C@H]3O[C@H]3O[C@H](CN)[C@@H](O)[C@H](O)[C@H]3N)O[C@@H]2CO)[C@H](N)[C@@H](O)[C@@H]1O
